The values below come from PubChem BioAssay (NCI).

Test systems include SK-OV-3 ovarian; UO-31 renal; SF-268 CNS; HCT-15 colon; MDA-MB-231 breast; U251 CNS; OVCAR-5 ovarian; M14 melanoma; RXF 393 renal; KM12 colon.
Common to all, as to test: NCI tumour cell line growth inhibition, 48 h

Values joined by “and” are separate entries in the source; they are usually repeats but may differ in a detail not shown here. Equal entries are not always repeated.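 Cells were grown in 96-well plates and exposed to each compound for 48 hours at five concentrations; endpoints were interpolated linearly between bracketing concentrations, or set to the highest concentration if not reached. GI50 is the concentration that inhibits growth by half. TGI denotes the concentration required for complete inhibition of growth.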

Consider `c1ccc2c(c1)[C@@H]1O[C@@H]1[C@@]13O[C@@]21[C@H]1O[C@H]1c1ccccc13`, for which the TGI turned out to be 52.2 µM with SK-OV-3 ovarian; 51.1 µM in the experiment on UO-31 renal; 28.3 µM in the experiment with SF-268 CNS; 48.8 µM in the experiment on HCT-15 colon; 33.6 µM in the experiment with MDA-MB-231 breast; 28.2 µM with U251 CNS. The TGI with OVCAR-5 ovarian worked out at 34.8 µM; in the experiment on M14 melanoma, 33.6 µM; with RXF 393 renal, 25.7 µM; with KM12 colon, 29.2 µM.
On to `Nc1nn2cc(-c3ccccc3)[n+](CC(=O)c3ccccc3)c2s1`, for which the TGI in the experiment with SK-OV-3 ovarian was above 100 µM; in the experiment on UO-31 renal it was above 100 µM; with SF-268 CNS, 50.6 µM; in the experiment with HCT-15 colon, above 100 µM; with MDA-MB-231 breast it was above 100 µM; in the experiment on U251 CNS it was 29.6 µM. The TGI is 53.6 µM in the experiment with OVCAR-5 ovarian, 40.6 µM in the experiment with M14 melanoma, 62.4 µM in the experiment with RXF 393 renal and 47.1 µM with KM12 colon.
Turning to `CC1CC2OC(=N)C1(C#N)C2(C#N)C#N` (configuration not stated), the TGI in the experiment on SK-OV-3 ovarian was above 100 µM; in the experiment with UO-31 renal it was 93 µM; with SF-268 CNS, 66.3 µM; in the experiment with HCT-15 colon, 30.6 µM; in the experiment on MDA-MB-231 breast, 38.4 µM; in the experiment with U251 CNS, above 100 µM. Further, the TGI was 48.5 µM in the experiment on OVCAR-5 ovarian, above 100 µM in the experiment on M14 melanoma, 31.1 µM with RXF 393 renal and above 100 µM in the experiment on KM12 colon.
In the case of `[O-][n+]1cc(SCc2ccccc2)ncc1SCc1ccccc1`, the TGI in the experiment on SK-OV-3 ovarian, in the experiment on UO-31 renal, with SF-268 CNS, in the experiment on HCT-15 colon, in the experiment with MDA-MB-231 breast and in the experiment on U251 CNS was above 10 µM in each case. The TGI in the experiment on OVCAR-5 ovarian, in the experiment on M14 melanoma, in the experiment on RXF 393 renal and with KM12 colon was above 10 µM each time.
Regarding `CC(=O)OC1COC(n2c(N)c(C#N)c(-c3ccccc3)c(C#N)c2=S)C(OC(C)=O)C1OC(C)=O` (configuration not stated), the TGI with SK-OV-3 ovarian was above 100 µM; in the experiment with UO-31 renal, > 100 µM and 67.8 µM; with SF-268 CNS it was above 100 µM; in the experiment on HCT-15 colon, above 100 µM; with MDA-MB-231 breast, above 100 µM; in the experiment with U251 CNS, above 100 µM. Besides, the TGI is above 100 µM in the experiment with OVCAR-5 ovarian; above 100 µM with M14 melanoma; 83.1 µM and > 100 µM with RXF 393 renal; above 100 µM with KM12 colon.
Turning to `CC(C)c1cc(C(C)C)c(B(c2ccccc2)c2ccccc2)c(C(C)C)c1Br`, the TGI in the experiment with SK-OV-3 ovarian, in the experiment with UO-31 renal, in the experiment with SF-268 CNS, with HCT-15 colon, in the experiment on MDA-MB-231 breast and in the experiment on U251 CNS was above 100 µM in each case. Moreover, the TGI in the experiment with OVCAR-5 ovarian, in the experiment on M14 melanoma, in the experiment with RXF 393 renal and with KM12 colon was above 100 µM throughout.
As for `CC(C)(CO)Nc1c(O)c2c(c(O)c1Cl)C(=O)C=CC2=O`, the TGI in the experiment with SK-OV-3 ovarian was determined as 2.91 µM; in the experiment with UO-31 renal, 2.88 µM; with SF-268 CNS it was 6.03 µM; in the experiment on HCT-15 colon, 2.22 µM; in the experiment with MDA-MB-231 breast it was 3.15 µM; in the experiment on U251 CNS, 3.11 µM. The TGI was 3.02 µM in the experiment on OVCAR-5 ovarian, 2.26 µM with M14 melanoma, 3.31 µM in the experiment with RXF 393 renal and 2.78 µM in the experiment with KM12 colon.
Consider `Fc1sc2c(c1F)C1CCC2C1` (configuration not stated), for which the TGI in the experiment with SK-OV-3 ovarian, in the experiment on UO-31 renal, in the experiment with SF-268 CNS, with HCT-15 colon, in the experiment with MDA-MB-231 breast and with U251 CNS was above 100 µM in each case. Further, the TGI in the experiment on OVCAR-5 ovarian, in the experiment with M14 melanoma, in the experiment on RXF 393 renal and in the experiment with KM12 colon was above 100 µM in each case.
`COc1cc(OC)cc(-c2nc3ccccc3c(=O)[nH]2)c1`: the TGI with SK-OV-3 ovarian is 62.8 µM; in the experiment with UO-31 renal, above 100 µM; in the experiment with SF-268 CNS, above 100 µM; with HCT-15 colon, above 100 µM; in the experiment with MDA-MB-231 breast it was above 100 µM; with U251 CNS, above 100 µM. Also, the TGI with OVCAR-5 ovarian, in the experiment on M14 melanoma, with RXF 393 renal and in the experiment on KM12 colon was above 100 µM each time.
On to `CO/C=C(/C(=O)OC)c1ccccc1[C@H]1C[C@@H]1c1ccccc1`, for which the TGI with SK-OV-3 ovarian was 51.2 µM; in the experiment on UO-31 renal it was above 100 µM; in the experiment on SF-268 CNS, 82.5 µM; in the experiment on HCT-15 colon, 86.8 µM; with MDA-MB-231 breast, above 100 µM; with U251 CNS it was above 100 µM. The TGI was above 100 µM with OVCAR-5 ovarian, 68.8 µM in the experiment with M14 melanoma, above 100 µM with RXF 393 renal and 49 µM with KM12 colon.
Consider `Cc1nc2cccc(F)c2c(=O)n1-c1nnc(C2CC2)s1`, for which the TGI in the experiment on SK-OV-3 ovarian, in the experiment with UO-31 renal, with SF-268 CNS, in the experiment on HCT-15 colon, with MDA-MB-231 breast and with U251 CNS was above 10 µM each time. For the same molecule, the TGI in the experiment with OVCAR-5 ovarian, in the experiment on M14 melanoma, with RXF 393 renal and with KM12 colon was above 10 µM throughout.
Regarding `Cc1cc(C)c(N)c(CO)c1`, the TGI in the experiment with SK-OV-3 ovarian, with UO-31 renal, in the experiment with SF-268 CNS, in the experiment on HCT-15 colon, in the experiment on MDA-MB-231 breast and with U251 CNS was above 100 µM in each case. Further, the TGI in the experiment with OVCAR-5 ovarian was 6.61 µM and 19 µM; with M14 melanoma, above 100 µM; in the experiment with RXF 393 renal it was above 100 µM; in the experiment with KM12 colon, above 100 µM. Besides, the GI50 in the experiment on OVCAR-5 ovarian is 1.17 µM and 4.31 µM; in the experiment with RXF 393 renal it was > 100 µM and 32.3 µM.
As for `CSC(=N/N=C(\C)c1ccc(S(=O)(=O)N(C)c2ccccc2)cc1)SC`, the TGI in the experiment with SK-OV-3 ovarian, in the experiment on UO-31 renal, in the experiment with SF-268 CNS, with HCT-15 colon, with MDA-MB-231 breast and with U251 CNS was above 100 µM each time. The TGI in the experiment with OVCAR-5 ovarian, in the experiment on M14 melanoma, in the experiment with RXF 393 renal and with KM12 colon was above 100 µM in each case.
